# From patent publication US20220395467A1, “THERAPEUTIC PROTEIN-BASED NANOPARTICLES AND METHODS FOR MAKING THE SAME” (THE REGENTS OF THE UNIVERSITY OF MICHIGAN, priority 2019, published 2022)
# System: B16F10-OVA melanoma
# Test: Therapeutic efficacy in murine model of B16F10-OVA melanoma
# Type: in vivo, C57BL/6 mice
# Experimental: FIGS. 9A-9B. FIGS. 9A-9B show therapeutic effect of OVA pNPs. In FIG. 9A, a vaccine doses and regimen for a murine model is shown. […] C57BL/6 mice are inoculated subcutaneously with 1×10^5 B 16F10-OVA cells on day 0. On days 7 and 14, mice are treated with indicated formulations (OVA pNP, soluble OVA, PBS) containing 10 μg/dose OVA and 15 μg/dose CpG (100 μL dose). Data represent mean±SEM (n=10). Groups are compared using Kaplan-Meier estimator analysis. P<0.05 is considered statistically different (*P<0.05). P>0.05 is considered not significant.
# Therapeutic efficacy of pNPs in a model of melanoma. Encouraged by the fact that OVA pNPs with 10% PEG/OVA ratio result in increased OT-I CD8+ cell proliferation in vitro, improved uptake by APCs (both in vitro and in vivo), and enhanced humoral immune response in vivo, a murine model of B16F10-OVA melanoma was employed to evaluate the therapeutic efficacy of pNPs with a PEG/OVA ratio of 10% compared to solute OVA. […] Following the regimen shown in FIG. 9A, C57BL/6 mice (10 mice/treatment group) were inoculated with 1×10^5 B16F10-OVA cells in the SC flank on day 0. […] A second treatment was given on day 14. Mice were euthanized after their tumors reached 15 mm in any dimension. […] More than 50% of mice treated with solute OVA were euthanized due to large tumor burden on day 20, and 100% of the mice were euthanized on day 21.
# [1] = treated days 7 and 14, 10 μg OVA + 15 μg CpG, n=10
substance,measurement,setting,value
"Ovalbumin [soluble OVA, soluble ovalbumin antigen used as control]",animal survival,"solute OVA vs no treatment control, pNPs until endpoint day 24",slightly better survival
same,mice euthanized due to large tumor burden on day 20,[1],More than 50%
same,mice euthanized on day 21,[1],100%
